Measured values: patent publication US20220356174A1, “PYRIDIN-2-ONE COMPOUNDS USEFUL AS SMARCA2 ANTAGONISTS” (Epizyme, Inc., priority 2018, published 2022)
Where two headings read alike, the source gives them in different places.

Columns and labels:
[1] = target: T1, FL-SMARCA2 (full-length human SMARCA2 isoform 1) (Homo sapiens, UniProt P51531); test: SMARCA2 ATPase activity assay (ADP-Glo, chicken mononucleosome substrate); assay type: biochemical; conditions: ATPase assay, enzyme 5 nM, ATP 250 uM, chicken mononucleosome 10 nM, 30 min preincubation
T1 construct: FLAG tag (YKDDDDK) (C); made in house; host or cells: Sf21 insect cells (baculovirus, pFastBacI)

[2] = target: FL-SMARCA4 (Homo sapiens, UniProt P51532); test: SMARCA4 ATPase activity assay (ADP-Glo, chicken mononucleosome substrate)
[3] = FL-SMARCA4 IC50, Table 3.2, ATPase assay, enzyme 5 nM, ATP 250 uM, chicken mononucleosome 10 nM, 30 min preincubation
[4] = FL-SMARCA4 IC>50, Table 3c.2, ATPase assay, enzyme 5 nM, ATP 250 uM, chicken mononucleosome 10 nM, 30 min preincubation

T1 sequence (P51531 with tags, fused parts or gaps): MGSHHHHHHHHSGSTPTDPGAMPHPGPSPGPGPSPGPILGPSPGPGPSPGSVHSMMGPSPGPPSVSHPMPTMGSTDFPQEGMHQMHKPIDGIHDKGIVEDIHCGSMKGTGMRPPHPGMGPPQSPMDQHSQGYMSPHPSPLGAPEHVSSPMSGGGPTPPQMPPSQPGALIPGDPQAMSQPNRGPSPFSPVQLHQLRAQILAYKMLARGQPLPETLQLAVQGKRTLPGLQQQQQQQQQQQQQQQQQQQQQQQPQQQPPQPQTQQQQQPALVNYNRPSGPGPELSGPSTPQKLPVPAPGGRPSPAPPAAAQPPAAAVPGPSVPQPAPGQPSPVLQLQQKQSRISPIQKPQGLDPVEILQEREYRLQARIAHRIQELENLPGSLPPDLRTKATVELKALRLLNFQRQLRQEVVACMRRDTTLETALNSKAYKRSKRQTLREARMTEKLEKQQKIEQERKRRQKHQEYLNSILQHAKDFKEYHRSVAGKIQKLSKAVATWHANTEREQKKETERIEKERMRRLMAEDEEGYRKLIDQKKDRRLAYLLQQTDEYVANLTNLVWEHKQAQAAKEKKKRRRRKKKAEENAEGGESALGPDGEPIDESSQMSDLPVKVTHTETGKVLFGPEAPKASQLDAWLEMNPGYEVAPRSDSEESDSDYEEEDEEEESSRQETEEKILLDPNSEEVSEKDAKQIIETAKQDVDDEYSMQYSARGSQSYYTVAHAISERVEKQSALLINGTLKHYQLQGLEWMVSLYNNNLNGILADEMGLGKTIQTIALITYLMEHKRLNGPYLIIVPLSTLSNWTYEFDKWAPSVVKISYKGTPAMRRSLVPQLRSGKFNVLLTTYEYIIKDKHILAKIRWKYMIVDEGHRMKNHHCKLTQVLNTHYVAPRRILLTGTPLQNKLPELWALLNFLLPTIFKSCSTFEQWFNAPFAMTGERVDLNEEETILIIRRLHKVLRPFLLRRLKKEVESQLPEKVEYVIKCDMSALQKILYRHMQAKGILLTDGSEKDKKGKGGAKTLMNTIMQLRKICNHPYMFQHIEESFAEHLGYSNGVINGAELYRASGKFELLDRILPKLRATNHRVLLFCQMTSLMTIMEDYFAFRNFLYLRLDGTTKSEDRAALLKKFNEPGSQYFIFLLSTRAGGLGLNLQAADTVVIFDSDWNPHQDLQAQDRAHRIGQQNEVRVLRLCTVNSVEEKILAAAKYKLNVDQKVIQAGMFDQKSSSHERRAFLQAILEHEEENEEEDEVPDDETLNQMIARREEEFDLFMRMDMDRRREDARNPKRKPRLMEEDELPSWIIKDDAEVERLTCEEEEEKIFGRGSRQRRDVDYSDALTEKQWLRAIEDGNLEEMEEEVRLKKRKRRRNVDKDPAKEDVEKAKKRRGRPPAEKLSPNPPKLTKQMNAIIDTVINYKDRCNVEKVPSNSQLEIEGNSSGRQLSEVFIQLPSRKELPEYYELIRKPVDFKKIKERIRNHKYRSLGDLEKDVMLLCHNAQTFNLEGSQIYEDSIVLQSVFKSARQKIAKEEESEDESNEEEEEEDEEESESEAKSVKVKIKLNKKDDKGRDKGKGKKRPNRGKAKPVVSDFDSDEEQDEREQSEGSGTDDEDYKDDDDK
Sequence of FL-SMARCA4 (P51532 whole entry): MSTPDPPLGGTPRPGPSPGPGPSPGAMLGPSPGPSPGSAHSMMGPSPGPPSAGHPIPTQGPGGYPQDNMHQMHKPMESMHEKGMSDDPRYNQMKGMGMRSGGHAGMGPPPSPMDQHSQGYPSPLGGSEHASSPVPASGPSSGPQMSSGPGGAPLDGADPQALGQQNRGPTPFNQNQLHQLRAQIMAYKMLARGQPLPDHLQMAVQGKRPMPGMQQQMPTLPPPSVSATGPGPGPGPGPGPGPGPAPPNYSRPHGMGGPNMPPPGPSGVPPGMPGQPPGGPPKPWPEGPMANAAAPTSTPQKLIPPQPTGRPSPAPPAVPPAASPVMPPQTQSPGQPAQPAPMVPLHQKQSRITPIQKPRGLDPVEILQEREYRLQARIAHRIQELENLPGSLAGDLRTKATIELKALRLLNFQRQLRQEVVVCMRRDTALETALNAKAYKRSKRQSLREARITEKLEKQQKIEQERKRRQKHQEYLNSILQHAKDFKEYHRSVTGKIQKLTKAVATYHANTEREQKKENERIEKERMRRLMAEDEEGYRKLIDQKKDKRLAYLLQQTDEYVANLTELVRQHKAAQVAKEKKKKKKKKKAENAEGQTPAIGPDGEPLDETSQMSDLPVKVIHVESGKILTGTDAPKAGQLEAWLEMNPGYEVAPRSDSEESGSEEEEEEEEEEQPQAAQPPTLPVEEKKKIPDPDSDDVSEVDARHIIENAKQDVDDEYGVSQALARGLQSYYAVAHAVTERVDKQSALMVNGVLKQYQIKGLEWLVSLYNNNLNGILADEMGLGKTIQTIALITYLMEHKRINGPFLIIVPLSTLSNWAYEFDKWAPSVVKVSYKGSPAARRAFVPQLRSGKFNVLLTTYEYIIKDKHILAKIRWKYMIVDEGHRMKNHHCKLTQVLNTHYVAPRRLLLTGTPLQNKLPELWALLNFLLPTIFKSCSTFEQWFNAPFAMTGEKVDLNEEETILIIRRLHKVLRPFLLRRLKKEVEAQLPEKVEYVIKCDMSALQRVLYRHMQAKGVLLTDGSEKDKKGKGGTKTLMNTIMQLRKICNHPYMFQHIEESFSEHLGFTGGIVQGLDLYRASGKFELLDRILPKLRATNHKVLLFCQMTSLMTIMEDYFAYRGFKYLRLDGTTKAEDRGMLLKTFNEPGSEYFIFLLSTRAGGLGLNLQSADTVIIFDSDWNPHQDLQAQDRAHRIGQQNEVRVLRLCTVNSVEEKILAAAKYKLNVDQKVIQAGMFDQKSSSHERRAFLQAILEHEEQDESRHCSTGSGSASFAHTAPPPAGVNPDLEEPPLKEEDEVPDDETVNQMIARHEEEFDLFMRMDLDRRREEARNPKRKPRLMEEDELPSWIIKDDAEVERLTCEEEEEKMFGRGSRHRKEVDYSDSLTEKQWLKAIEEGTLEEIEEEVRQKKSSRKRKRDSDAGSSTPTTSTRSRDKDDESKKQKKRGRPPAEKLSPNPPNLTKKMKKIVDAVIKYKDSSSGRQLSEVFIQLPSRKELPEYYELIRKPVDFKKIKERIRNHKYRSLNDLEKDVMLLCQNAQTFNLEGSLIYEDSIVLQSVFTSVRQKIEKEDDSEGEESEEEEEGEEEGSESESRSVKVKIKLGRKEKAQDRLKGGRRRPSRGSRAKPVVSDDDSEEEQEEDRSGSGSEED

| IC50 ([1]; Table 3.1) | IC50 [2, 3] | IC50 ([1]; Table 3c.1) | IC50 [2, 4] | Compound | further results |
| --- | --- | --- | --- | --- | --- |
| 12 µM | 34.7 µM |  |  | O=C(Nc1ccc(=O)n(CC(F)(F)F)c1)c1cc(Cl)c(Cl)n1CCF [Compound 85] |  |
| 0.365 µM | 0.669 µM |  |  | CCn1cc(NC(=O)c2cc(Cl)c(C#N)s2)ccc1=O [Compound 86] |  |
| > 50 µM | > 50 µM |  |  | COCCn1cc(NC(=O)c2cc(Cl)c(Cl)s2)ccc1=O [Compound 87] |  |
| > 50 µM | > 50 µM |  |  | CCn1cc(NC(=O)c2ccc(CN(C)C)s2)ccc1=O [Compound 88] |  |
|  |  | > 50 µM | > 50 µM | Cn1ccnc1-c1cc(NC(=O)c2cc(Cl)c(C(F)(F)F)s2)cn(CC(F)F)c1=O [Compound 88c] |  |
| > 50 µM | > 50 µM |  |  | CN(C)CCn1cc(NC(=O)c2cc(Cl)c(Cl)n2C)ccc1=O [Compound 89] |  |
| > 50 µM | > 50 µM |  |  | CCn1cc(NC(=O)c2nncs2)ccc1=O [Compound 90] |  |
| > 50 µM | > 50 µM |  |  | CCc1cc(C(=O)Nc2ccc(=O)n(CC)c2)sc1Cl [Compound 91] |  |
|  |  | > 50 µM | > 50 µM | Cn1cnc(-c2cc(NC(=O)c3cc(Cl)c(C(F)(F)F)s3)cn(CC(F)F)c2=O)c1 [Compound 91c] |  |
| > 50 µM | > 50 µM |  |  | CCn1cc(NC(=O)c2cnn(C)c2)ccc1=O [Compound 92] |  |
| > 50 µM | > 50 µM |  |  | CCn1cc(NC(=O)c2ccn(C)n2)ccc1=O [Compound 93] |  |
|  |  | > 50 µM | > 50 µM | N#Cc1sc(C(=O)Nc2cc(F)c(=O)n(CC(F)F)c2)cc1C#CC1COC1 [Compound 93c] |  |
| 3.15 µM | 11.5 µM |  |  | CCn1cc(NC(=O)c2cc(Cl)n[nH]2)ccc1=O [Compound 94] |  |
|  |  | > 50 µM | > 50 µM | O=C(Nc1cc(F)c(=O)n(CC(F)F)c1)c1cc(C#CC2COC2)c(C2CC2)s1 [Compound 94c] |  |
|  |  |  |  | N#Cc1cc(C(=O)Nc2cc(F)c(=O)n(CC(F)F)c2)sc1C1(F)CC1 [Compound 94d] | IC50 ([1]; Table 3d.1, read-out: FL-SMARCA2 IC>50): 1.77 µM; IC50 ([2]; FL-SMARCA4 IC50): 17.9 µM |
| > 50 µM | > 50 µM |  |  | CCc1sc(C(=O)Nc2ccc(=O)n(CC)c2)cc1Cl [Compound 95] |  |
| > 50 µM | > 50 µM |  |  | CCn1cc(NC(=O)c2cc(Cl)n(C)c2Cl)ccc1=O [Compound 96] |  |
| > 50 µM | > 50 µM |  |  | CCn1cc(NC(=O)c2cc(Cl)[nH]c2Cl)ccc1=O [Compound 97] |  |
| > 50 µM | > 50 µM |  |  | CCn1cc(NC(=O)c2cc(CN(C)C)cs2)ccc1=O [Compound 98] |  |
|  |  | 6.81 µM | 27.6 µM | O=C(Nc1cc(F)c(=O)n(CC(F)(F)CO)c1)c1cc(Cl)c(Cl)s1 [Compound 100c] |  |
|  |  | > 50 µM | > 50 µM | O=C(Nc1cc(-c2cnco2)c(=O)n(CC(F)F)c1)c1cc(Cl)c(C(F)(F)F)s1 [Compound 101c] |  |
| 4.12 µM | 18.6 µM |  |  | O=C(Nc1cc(Cl)c(=O)n(CC(F)(F)F)c1)c1cc(Cl)c(Cl)s1 [Compound 102] |  |
|  |  | > 50 µM | > 50 µM | O=C(Nc1cc(-c2ncco2)c(=O)n(CC(F)F)c1)c1cc(Cl)c(C(F)(F)F)s1 [Compound 102c] |  |
| 0.356 µM | 0.531 µM |  |  | CCn1cc(NC(=O)c2cnc(Cl)s2)cc(Cl)c1=O [Compound 103] |  |
|  |  | 31.3 µM | 26 µM | Cn1ccc(-c2cc(NC(=O)c3cc(Cl)c(C(F)(F)F)s3)cn(CC(F)F)c2=O)n1 [Compound 103c] |  |
| 0.192 µM | 0.229 µM |  |  | O=C(Nc1cc(Cl)c(=O)n(CC(F)(F)F)c1)c1cnc(Cl)s1 [Compound 104] |  |
|  |  | 22.4 µM | 29.6 µM | O=C(Nc1cc(-c2c[nH]cn2)c(=O)n(CC(F)F)c1)c1cc(Cl)c(C(F)(F)F)s1 [Compound 104c] |  |

| IC50 ([1]; Table 3.1) | IC50 [2, 3] | IC50 ([1]; Table 3c.1) | IC50 [2, 4] | Compound | further results |
| --- | --- | --- | --- | --- | --- |
| 27.8 µM | > 50 µM |  |  | CCn1cc(NC(=O)c2cc(Cl)c(Cl)s2)cc(C)c1=O [Compound 105] |  |
|  |  | 0.0407 µM | 0.172 µM | O=C1CC(C#Cc2cc(C(=O)Nc3cc(F)c(=O)n(CC(F)F)c3)sc2Cl)CCN1 (stereo not shown) [Compound 105c] |  |
| 0.417 µM | 0.838 µM |  |  | CCn1cc(NC(=O)c2cc(C#N)c(Cl)s2)ccc1=O [Compound 106] |  |
|  |  | 0.028 µM | 0.0533 µM | O=C(Nc1cc(F)c(=O)n(CC(F)F)c1)c1cc(C#Cc2ccncc2)c(F)s1 [Compound 106c] |  |
| 36.7 µM | > 50 µM |  |  | CCn1cc(NC(=O)c2cc(Cl)ns2)ccc1=O [Compound 107] |  |
|  |  | 0.0508 µM | 0.142 µM | COc1nc(C#Cc2cc(C(=O)Nc3cc(F)c(=O)n(CC(F)F)c3)sc2Cl)cs1 [Compound 107c] |  |
| > 50 µM | > 50 µM |  |  | CCn1cc(NC(=O)c2cn(C)c(Cl)n2)ccc1=O [Compound 108] |  |
|  |  | 0.0818 µM | 0.2 µM | O=C(Nc1cc(F)c(=O)n(CC(F)F)c1)c1cc(C#CC2COC2)c(F)s1 [Compound 108c] |  |
| 0.173 µM | 0.559 µM |  |  | CCn1cc(NC(=O)c2cc(Cl)c(Cl)s2)cc(F)c1=O [Compound 109] |  |
|  |  | 0.0625 µM | 0.159 µM | O=C(Nc1cc(F)c(=O)n(CC(F)F)c1)c1cc(F)c(F)s1 [Compound 109c] |  |
| > 50 µM | > 50 µM |  |  | CCn1cc(NC(=O)c2cc(Cl)c(Cl)s2)cc(OC)c1=O [Compound 110] |  |
|  |  | > 50 µM | > 50 µM | O=C(Nc1cc(-c2cn[nH]c2)c(=O)n(CC(F)F)c1)c1cc(Cl)c(C(F)(F)F)s1 [Compound 110c] |  |
| > 50 µM | > 50 µM |  |  | CCn1cc(NC(=O)c2cc(Cl)c(Cl)s2)cc(C(C)C)c1=O [Compound 111] |  |
| > 50 µM | > 50 µM |  |  | CCCc1cc(NC(=O)c2cc(Cl)c(Cl)s2)cn(CC)c1=O [Compound 112] |  |
|  |  | > 50 µM | > 50 µM | O=C(Nc1cc(F)c(=O)n(CC(F)F)c1)c1cc(C#Cc2ccncc2)n[nH]1 [Compound 112c] |  |
| 14.1 µM | 16.6 µM |  |  | CCn1cc(NC(=O)c2cc(Cl)c(Cl)s2)cc(NCCOC)c1=O [Compound 113] |  |
| 9.42 µM | 14.3 µM |  |  | CCn1cc(NC(=O)c2cc(Cl)c(Cl)s2)cc(NCCN(C)C)c1=O [Compound 114] |  |
|  |  | 30.5 µM | > 50 µM | O=C(Nc1cc(F)c(=O)n(CC(F)F)c1)c1cc2c(s1)C(F)(F)CNC2 [Compound 114c] |  |
| > 50 µM | 16.7 µM |  |  | CCn1cc(NC(=O)c2ccn(C)c2Cl)ccc1=O [Compound 115] |  |
|  |  | > 50 µM | > 50 µM | CN1Cc2cc(C(=O)Nc3cc(F)c(=O)n(CC(F)F)c3)sc2C(F)(F)C1 [Compound 115c] |  |
| 39.3 µM | > 50 µM |  |  | CCn1cc(NC(=O)c2cc(Cl)c(OC)s2)ccc1=O [Compound 116] |  |
| > 50 µM | > 50 µM |  |  | CCc1cc(NC(=O)c2cc(Cl)c(Cl)s2)cn(CC)c1=O [Compound 117] |  |
| > 50 µM | > 50 µM |  |  | CCn1cc(NC(=O)c2cc(Cl)c(Cl)s2)cc(OCCOC)c1=O [Compound 118] |  |
| > 50 µM | > 50 µM |  |  | CCn1cc(NC(=O)c2cc(Cl)c(Cl)s2)cc(OCCN2CCN(C)CC2)c1=O [Compound 119] |  |
|  |  | 6.17 µM | 16.1 µM | O=C(Nc1cc(F)c(=O)n(CC(F)F)c1)c1cc(N2CCN(c3ccncc3)CC2)c(Cl)s1 [Compound 119c] |  |
| > 50 µM | > 50 µM |  |  | CCn1cc(NC(=O)c2cc(Cl)c(Cl)s2)cc(Cc2ccccc2)c1=O [Compound 120] |  |
